For 4 compounds, IC50 results are on record in patent US20230100235A1, “ANTICANCER AGENT COMPOSITION” (CARNA BIOSCIENCES, INC., priority 2020, published 2023).

Assay type in all cases: cell-based, Human
In one assay the test system is OCI-Ly10 cells. In words: Cell proliferation suppression test of single agents, OCI-Ly10 (Alamar Blue, 96 h). The note with it: read-out: Inhibitory Activity on cell proliferation IC50 OCI-Ly10. Here is the method: Human lymphoma cell line OCI-Ly10 cells (obtained from University Health Network) were cultured in a 5% CO2 incubator using IMDM medium (Iscove's Modified Dulbecco's Medium, Thermo Fisher Scientific Inc.) containing 20% fetal bovine serum (GE Healthcare) and 1% penicillin streptomycin (NACALAI TESQUE, INC.).
(§1) The OCI-Ly10 or U2932 cells (20000 cells/well) were seeded into 96-well plates (cell plates), to which the test compound diluted with the medium was added at final concentrations of 0.009 nM to 30000 nM (a final DMSO concentration of 0.3%), and after 96 hours of culture, an Alamar Blue reagent (Thermo Fisher Scientific Inc.) was added. After 3 hours, the fluorescence of excitation wavelength 560 nm/fluorescence wavelength 590 nm was measured and IC50 values of inhibitory activity were determined by setting a compound-free and cell-free well as 100% and a compound-free and cell-containing well as 0%.
In general terms: The colour change of resazurin is a common sign of viable cells or microbes.

The subject of the next assay is U2932 cells. In words: Cell proliferation suppression test of single agents, U2932 (Alamar Blue, 96 h). As to conditions: read-out: Inhibitory Activity on cell proliferation IC50 U2932. Here is the method: Human lymphoma cell line U2932 cells (obtained from DSMZ) were cultured in a 5% CO2 incubator using RPMI medium (Roswell Park Memorial Institute medium, Thermo Fisher Scientific Inc.) containing 10% fetal bovine serum (GE Healthcare) and 1% penicillin streptomycin (NACALAI TESQUE, INC.).
as §1

Assay [1] relates to BTK-C481S-mutant OCI-Ly10 cells. Put plainly: Cell proliferation suppression test of single agents, BTK-C481S-mutant OCI-Ly10. The note with it: single agent, read-out: Inhibitory activity on cell proliferation OCI-Ly10 BTK-C481S IC50. Here is the method: as §1
BTK-C481S-mutant OCI-Ly10 cells were produced by point mutation knock-in using the CRISPR-Cas9 system. Cas9 protein (Thermo Fisher Scientific Inc.), guide RNA prepared with GeneArt™ Precision gRNA Synthesis Kit (Thermo Fisher Scientific Inc.), and a single-stranded synthetic oligonucleotide to replace 481st cysteine residue of BTK with a serine residue were introduced into OCI-Ly10 cells by an electroporation method. The resulting modified OCI-Ly10 cells were cultured in the presence of ibrutinib, and the grown cells were used as BTK-C481S-mutant OCI-Ly10 cells. Transduction of the mutation was confirmed by genomic DNA and mRNA sequence analysis.
In the same manner as in Test Example 1, IC50 values for each inhibitor single agent were determined.

Where [2] appears, read: Homo sapiens, OCI-Ly10, single agent.
The mark [3] stands for this setting: Homo sapiens, U2932, single agent.

Where a name gives a salt, the structure may show the parent alone. Read-outs that look alike come from different tables or passages of the source.

For the compound `CC1(C)CCC(CN2CCN(c3ccc(C(=O)NS(=O)(=O)c4ccc(NCC5CCOCC5)c([N+](=O)[O-])c4)c(Oc4cnc5[nH]ccc5c4)c3)CC2)=C(c2ccc(Cl)cc2)C1` [venetoclax], the IC50 is 10 nM with OCI-Ly10 cells (setting [2]); 720 nM in the assay with U2932 cells (setting [3]); 20 nM in assay [1] (Homo sapiens, OCI-Ly10).
In the same order, the values of `COC1=CC(c2cc3ccccc3[nH]2)=N/C1=C\c1[nH]c(C)cc1C` [obatoclax mesylate] are 150 nM, 190 nM and 150 nM.
In the case of `CC1(C)CCC(c2ccc(Cl)cc2)=C(CN2CCN(c3ccc(C(=O)NS(=O)(=O)c4ccc(N[C@H](CCN5CCOCC5)CSc5ccccc5)c(S(=O)(=O)C(F)(F)F)c4)cc3)CC2)C1` [navitoclax], the IC50 stood at 68 nM in the assay with OCI-Ly10 cells (setting [2]); 390 nM in the assay with U2932 cells (setting [3]); 96 nM in assay [1] (Homo sapiens, OCI-Ly10).
As to `O=C(c1cc(-c2cc3c(cc2C(=O)N2Cc4ccccc4C[C@H]2CN2CCOCC2)OCO3)n2c1CCCC2)N(c1ccccc1)c1ccc(O)cc1` [Compound S-55746], the results for the IC50 (in the assay with OCI-Ly10 cells (single agent); in the assay with U2932 cells (single agent); in assay [1]) were 69 nM, 1350 nM and 120 nM, respectively.
